Assay results from patent publication US20260007741A1, “LIPID NANOPARTICLES FOR DELIVERY OF NUCLEIC ACIDS AND VACCINES” (priority 2024, published 2026).
Where two headings read alike, the source gives them in different places.

Key:
MutuDC1940 cells = experiment: Transfection efficiency of mCherry mRNA LNPs in murine dendritic cells (flow cytometry); type: cell-based; settings: for mRNA endosomal escape and translation / mRNA transfection: MutuDC1940 cells, mCherry mRNA LNPs; for transfection activity when incorporated into LNPs: murine dendritic cells (Example 8)
Experimental: • 1. MutuDC1940 cells (Applied Biological Materials, T0528) were grown according to supplier's instructions in T75 flasks. They were plated at 180,000 cells/well into 24-well plate one day prior to transfection. • 2. LNPs were added in triplicate to each well at the desired mRNA concentration (e.g. 1 μg/mL) in 1 mL media and after 24 h the cells were washed once with DPBS (VWR 02-0119-1000). • 3. 0.2 mL of DPBS (plus 5 mM EDTA, pH 7.4) was then added to facilitate detachment. • 4. The cells were placed at 37° C. for 3 min, until detached. • 5. 0.5 ml DPBS added to each well and the liquid transferred to a flow cytometry tube (Falcon 5 mL #352054). • 6. The tube was centrifuged at 1100 rpm for 3-5 min and the liquid poured off. • 7. 100 μL of Zombie Violet (Biolegend) (diluted 1:500 in PBS) was added to each tube. • 8. The tubes were gently tapped to resuspend cells and placed in the dark for 15 min at RT. • 9. To the cells 0.5 mL of (paraformaldehyde 4% in PBS:DPBS 1:1) was added and the cells flicked gently to resuspend and put on ice for 30 min. Another 2 ml PBS was added. • 10. The cells were pelleted as above and resuspended in 0.5 mL DPBS with 5% BSA and placed in the fridge until needed.
Cells suspensions were analyzed by an Attune NxT flow cytometer using the VL1 and YL2 for live/dead and mCherry fluorescence signals respectively. Gating analysis was performed on FloJo software.

TLR7/8 = experiment: In vivo inflammatory profile of UUGU oligoribonucleotides in LNP formulations using different ICLs (Example 28; serum and dLNs); set-up: species or system mice; settings: 1 ug UUGU dose
Source text: Blood and dLNs (pooled iliac, popliteal and inguinal LNs) were harvested 6 hrs post-injection. […] No. 740622). LNs were weighed prior to lysis, and analyte concentrations were converted from pg/mL to pg/mg of tissue mass. […] The analyte concentrations in the blood serum are reported in Table 68 and the mean fold changes over vehicle treatment are shown in Table 69. The analyte concentrations in the dLNs are reported in Table 70 and the mean fold changes over vehicle treatment are shown in Table 71. The primary aim of this study was to examine the effect of various ionizable cationic lipids (ICLs) on the delivery of a UUGU oligoribonucleotide to TLR7/8 located intracellularly in endolysosomal compartments. We also sought to determine whether PS-targeting of LNPs influenced activity. […] UUGU oligos were encapsulated in LNPs formulated with KC-OA family ICLs, AKG-UO-DM2, DODMA, or DODAP. We also tested the ALC-0315 and SM-102 LNP formulations. The effect of PS targeting on biological activity was also assessed using either DOPS or DPPS formats.

TLR9 = experiment: In vivo inflammatory profile of CpG-ODN 1018 in LNP formulations with various ICLs (Example 27; serum and dLNs); set-up: species or system BALB/c mice; settings: 1 μg dose CpG
[1] = Apparent solubility of phosphatidylserine salts in ethanol (shake flask); type: physicochemical; settings: for Solubility, mM phosphatidylserine: 100% ethanol at room temperature, 24 hours, average±SD (N=3)
Experimental: Apparent solubilities of phosphatidylserine salts in ethanol were determined by shake flask technique. Sodium and ammonium salts of phosphatidylserines in the powder form were obtained from Avanti Polar Lipids (Alabama, USA). Aliquots of phosphatidylserine salt powder were placed in 12×75 borosilicate glass tubes in triplicate. Three mL of 200 proof ethanol (catalog number E-7023, MilliporeSigma, USA) were added, the tubes were closed with polyethylene snap caps, agitated using vortex mixer for 10-15 s to obtain uniform suspensions, and placed in a horizontal position on a rocking platform at room temperature (20-22° C.) overnight. The ambient temperature at the end of incubation was 20.4-20.9° C. After 24 hours incubation, the suspensions were visually checked for the presence of a solid phase, allowed to settle under gravity, and the supernatant solutions were passed through a 0.2-μm PTFE syringe membrane filters. The first 0.5 ml of the filtrate was discarded, the next 1 ml was collected, and phosphatidylserine in the filtrates was quantified by phospholipid phosphate assay as follows: 20 μL aliquots of the filtrate were taken in triplicate into glass tubes, ethanol was evaporated in a stream of argon at 70° C., and the residue was digested in a mixture of 60 μL concentrated sulfuric acid and 20 μL 30% hydrogen peroxide for 10 min at 180-190° C. The digested samples were diluted with 1 mL of deionized water, 20 μL of 10% sodium sulfite was added to destroy any residual peroxide, and the samples were incubated on a boiling water bath for 15 min to hydrolyze any condensed phosphate species. The samples were chilled down to room temperature, mixed with 0.2 mL of 2% (w/w) ammonium molybdate solution and 20 μL of 10% (w/w) ascorbic acid solution, incubated on a boiling water bath for 10 min, and chilled down in a water bath at room temperature. The phosphate concentration was determined from the optical density of the formed blue phosphomolybdic acid at 825 nm using five-point standard curve from concurrently run standards prepared from the NIST-traceable commercial phosphate standard solution diluted to cover the range of 0-2 mM phosphate (coefficient of determination R^2 >0.9999). Solubility of phosphatidylserine salts was expressed in molarity units of phosphatidylserine (Table 40). The data are average±SD (N=3).

[2] = Semple et al., (2010) Nature Biotech. 28 (2) 172-176; cited from earlier work
[3] = for % of main lipid peak to To: 1% H2O2/100 μM Fe(III)Cl, 37° C.
Experimental: The aim of this studies was to compare stability of ionizable cationic lipids under accelerated oxidation.
Prior to the experiment, 75 μl of a lipid stock was mixed with 75 μl of ultra-pure water (Rx Biosciences, cat #P01-UPW02-1000) to make 0.5 mM of cationic lipids and 5 mM of linoleic acid respectively. A combined stock in water of 10% H2O2 (Sigma-Aldrich, cat #H1009) and 1 mM of Fe(III)Cl (Sigma-Aldrich, cat #372870) was freshly by prepared prior to the experiment. To make 1% final concentration of H2O2 and 100 μM Fe(III)Cl, 15 μl of 10% H2O2/1 mM Fe(III)C1 stock was added to 135 μl of individual lipids The liposomes and individual lipids were incubated with H2O2/Fe(III)C1 at 37° C. and then 5 μl from each sample was taken at different time points (0, 24, 48, 72 and 96 hours) and dissolved in 90 μl of MeOH for HPLC analysis. Degradation of the main lipid peak was analyzed using Thermo Scientific Vanquish Flex UHPLC occupied with Charged Aerosol Detector (CAD) and Phenomenex™ Kinetex C8 column (L=150 mm, D=2.1 mm, Particle Size=1.7 μm, 100 A).
The data are presented as a percentage of the main lipid peak measured at different time points relative to the lipid peak measured at time zero.

human dendritic cells = experiment: Transfection efficiency of mCherry mRNA LNPs in human dendritic cells (flow cytometry); settings: human dendritic cells (Example 9)
Experimental: Four days prior to transfection, monocytes were isolated using CD14 isolation kit (StemCell) from PBMCs of healthy donors. […] The monocytes were cultured with IL-4 (R&D 1000 IU/mL) and GM-CSF (R&D, 800 IU/mL) in a 6 well dish at 1×10^6 cells/mL at 37° C., 5% CO2. After 4 days the immature DCs were harvested and seeded in a 96 well round bottom plate at 50,000 cells/well. LNPs were thawed by placing the vials in a 37° C. water bath for 30 seconds, or until the sample had almost fully melted. The vials were immediately placed on ice until use. The LNPs were added to final concentrations of 1 μg/ml and 0.1 μg/mL mRNA. For 1 μg/mL treatment, LNPs were added directly to each well then wells were mixed by pipetting. For 0.1 μg/mL treatment, LNPs were diluted 1:10 in complete media then added to each well and mixed by pipetting. After 4 h a maturation cytokine cocktail was added directly to each well consisting of TNF-α (R&D, 10 ng/mL), IL-1b (R&D, 2 ng/mL), IL-6 (R&D, 1000 IU/mL), and PGE1 (R&D, 1 μg/mL). After 24 h, the cells were centrifuged, washed in PBS and analyzed by flow cytometry for mCherry fluorescence. Gating analysis was performed using CytExpert software.

SMILES | mRNA endosomal escape and translation / mRNA transfection (MutuDC1940 cells) | % of main lipid peak to To ([3]; 24 h) | % of main lipid peak to To ([3]; 48 h) | % of main lipid peak to To ([3]; 72 h) | further results
CCCCCCCC/C=C\CCCCCCCCC1(CCCCCCCC/C=C\CCCCCCCC)OCC(CCCCN(C)C)O1 (racemic) [KC4-OA, 4-rac-2,2-di((Z)-octadec-9-en-1-yl)-1,3-dioxolan-4-yl)-N,N-dimethylbutan-1-amine] | relatively efficient |  |  |  | 
CCCCCCCC/C=C\CCCCCCCC(=O)OC[C@H](CCN(C)C)OC(=O)CCCCCCC/C=C\CCCCCCCC [AKG-OA-DM2, (S)-4-(dimethylamino)butane-1,2-diyl dioleate] | relatively poor for mRNA transfection |  |  |  | induction of a proinflammatory signature by UUGU LNPs by ICL (TLR7/8): most potent LNP adjuvant formulation; induction of a proinflammatory signature by UUGU LNPs by ICL (TLR7/8; listed as AKG-UO-DM2): most efficient; levels of IL-12p70 and type I IFN-α in the blood and dLNs (TLR9): highest levels
CCCCCCCC/C=C\CCCCCCCC(=O)OC[C@H](CCCN(C)C)OC(=O)CCCCCCC/C=C\CCCCCCCC [AKG-OA-DM3, (S)-5-(dimethylamino)pentane-1,2-diyl dioleate] | relatively poor for mRNA transfection |  |  |  | 
CCCCCCCC/C=C\CCCCCCCCOC[C@H](CN(C)C)OCCCCCCCC/C=C\CCCCCCCC [DODMA, reference compound] |  |  |  |  | induction of a proinflammatory signature by UUGU LNPs by ICL (TLR7/8): most efficient
CCCCCCCCCCCCCCCC(=O)OC[C@H](COP(=O)(O)OC[C@H](N)C(=O)O)OC(=O)CCCCCCCCCCCCCCC.N [DPPS ammonium] |  |  |  |  | ethanol solubility compared to ammonium salt of DSPS or the sodium salts [1]: several-fold higher; Solubility, mM phosphatidylserine [1]: 0.865 ± 0.060 mM
CCCCCCCCCCCCCCCC(=O)OC[C@H](COP(=O)(O)OC[C@H](N)C(=O)[O-])OC(=O)CCCCCCCCCCCCCCC.[Na+] [DPPS sodium] |  |  |  |  | Solubility, mM phosphatidylserine [1]: 0.201 ± 0.004 mM
CCCCCCCCCCCCCCCCCC(=O)OC[C@H](COP(=O)(O)OC[C@H](N)C(=O)O)OC(=O)CCCCCCCCCCCCCCCCC.N [DSPS ammonium] |  |  |  |  | Solubility, mM phosphatidylserine [1]: 0.034 ± 0.004 mM
CCCCCCCCCCCCCCCCCC(=O)OC[C@H](COP(=O)(O)OC[C@H](N)C(=O)[O-])OC(=O)CCCCCCCCCCCCCCCCC.[Na+] [DSPS sodium] |  |  |  |  | Solubility, mM phosphatidylserine [1]: 0.111 ± 0.009 mM
CCCCCCCC/C=C\CCCCCCCCC1(CCCCCCCC/C=C\CCCCCCCC)OC[C@H](CCN(C)C)O1 [KC2-OA, 2-((S)-2,2-di((Z)-octadec-9-en-1-yl)-1,3-dioxolan-4-yl)-N,N-dimethylethan-1-amine] | relatively efficient |  |  |  | 
CCCCC/C=C\C/C=C\CCCCCCCCC1(CCCCCCCC/C=C\C/C=C\CCCCC)OCC(CCN(C)C)O1 (stereo not drawn) [KC2] |  |  |  |  | activity of KC2 compared to KC3 [2]: 6 fold
CCCCC/C=C\C/C=C\CCCCCCCCC1(CCCCCCCC/C=C\C/C=C\CCCCC)OCC(CCCN(C)C)O1 (stereo not drawn) [KC3, reference compound] |  | 11.2 ± 1.0% | 10.5 ± 0.5% | 0 ± 0% | degradation relative to other cationic lipids under the forced oxidation with H2O2 [3]: fastest degradation
CCCCC/C=C\CCCC/C=C\CCCCCC1(CCCCC/C=C\CCCC/C=C\CCCCC)OC[C@H](CCCN(C)C)O1 [KC3-01, 3-((S)-2,2-di((6Z,12Z)-octadeca-6,12-dien-1-yl)-1,3-dioxolan-4-yl)-N,N-dimethylpropan-1-amine] |  |  |  |  | transfection activity when incorporated into LNPs (human dendritic cells): highest activity
CCCCCCCC/C=C\CCCCCCCC1(CCCCCCC/C=C\CCCCCCCC)OC[C@H](CCCN(C)C)O1 [KC3-17 (C8:1), 3-((S)-2,2-di((Z)-heptadec-8-en-1-yl)-1,3-dioxolan-4-yl)-N,N-dimethylpropan-1-amine] |  | 66.1 ± 0.6% | 58.4 ± 1.5% | 45.9 ± 4.7% | transfection activity when incorporated into LNPs (human dendritic cells): highest activity; transfection activity when incorporated into LNPs (MutuDC1940 cells): highest activity
CCCCCCCCCCCCCCCCCC1(CCCCCCCCCCCCCCCCC)OC[C@H](CCCN(C)C)O1 [KC3-17, (S)-3-(2,2-diheptadecyl-1,3-dioxolan-4-yl)-N,N-dimethylpropan-1-amine] |  | 92.9 ± 0.3% | 91.8 ± 1.2% | 90.2 ± 1.2% | transfection activity when incorporated into LNPs (MutuDC1940 cells): completely inactive
CCCCCCCC/C=C\CCCCCCCCC1(CCCCCCCC/C=C\CCCCCCCC)OC[C@H](CCCN(C)C)O1 [KC3-OA, 3-((S)-2,2-di((Z)-octadec-9-en-1-yl)-1,3-dioxolan-4-yl)-N,N-dimethylpropan-1-amine] | relatively efficient | 88.9 ± 0.5% | 84.6 ± 0.9% | 79.0 ± 0.1% | transfection activity when incorporated into LNPs (human dendritic cells): highest activity; induction of a proinflammatory signature by UUGU LNPs by ICL (TLR7/8): most efficient; transfection activity when incorporated into LNPs (MutuDC1940 cells): highest activity
CCCCCC/C=C\CCCCCCCCC1(CCCCCCCC/C=C\CCCCCC)OC[C@H](CCCN(C)C)O1 [KC3-PA, 3-((S)-2,2-di((Z)-hexadec-9-en-1-yl)-1,3-dioxolan-4-yl)-N,N-dimethylpropan-1-amine] |  | 62.7 ± 0.1% | 59.2 ± 0.8% | 60.2 ± 0.6% | transfection activity when incorporated into LNPs (human dendritic cells): highest activity
